For 7 compounds, EC50 results are on record in patent publication US8629276B2, “Inhibitors of human immunodeficiency virus replication” (priority 2012, dated 2014).

The EC50 is the concentration that produces a half-maximal response.

The test deals with recombinant NL-Rluc virus. Description: Inhibition of HIV replication (NL-RLuc virus, luciferase readout in MT-2 cells). The settings on record: Human immunodeficiency virus 1, MT2, 120 h. The test is classed as cell-based.
With `Cc1nc2c(c(-c3cc(F)c4c(c3C)CCCO4)c1[C@H](OC(C)(C)C)C(=O)O)CN(CCCc1ccc(Cl)cc1)CC2` (atropisomer, axis not shown) [Example 44, (2S)-2-(tert-Butoxy)-2-(6-(3-(4-chlorophenyl)propyl)-(R)-4-(8-fluoro-5-methylchroman-6-yl)-2-methyl-5,6,7,8-tetrahydro-1,6-naphthyridin-3-yl)acetic acid], the EC50 was determined as 3 nM.

For `Cc1ccc(-c2c3c(nc(C)c2[C@H](OC(C)(C)C)C(=O)O)C(C)(C)CN(CCCc2ccccc2)C3)cc1` [Example 43, (S)-2-(tert-Butoxy)-2-(2,8,8-trimethyl-6-(3-phenylpropyl)-4-(p-tolyl)-5,6,7,8-tetrahydro-1,6-naphthyridin-3-yl)acetic acid], the EC50 amounted to 29 nM.

`CC(C)c1nc2c(c(-c3ccc(F)cc3)c1C(OC(C)(C)C)C(=O)O)CN(c1ccc(-c3ccccc3)cc1)CC2(C)C` (stereo not shown) [Example 18, 2-(6-([1,1′-Biphenyl]-4-yl)-4-(4-fluorophenyl)-2-isopropyl-8,8-dimethyl-5,6,7,8-tetrahydro-1,6-naphthyridin-3-yl)-2-(tert-butoxy)acetic acid]: the EC50 stood at 2020 nM.

Consider `Cc1ccc(-c2c3c(nc(C)c2[C@H](OC(C)(C)C)C(=O)O)CCN(Cc2ccc(Cl)cc2)C3)cc1` [Example 41, (S)-2-(tert-Butoxy)-2-(6-(4-chlorobenzyl)-2-methyl-4-(p-tolyl)-5,6,7,8-tetrahydro-1,6-naphthyridin-3-yl)acetic acid], for which the EC50 was 150 nM.

As for `COC(=O)N1CCc2nc(C)c(C(OC(C)(C)C)C(=O)O)c(-c3ccc(C)cc3)c2C1` (stereo not shown) [Example 26, 2-(tert-Butoxy)-2-(6-(methoxycarbonyl)-2-methyl-4-(p-tolyl)-5,6,7,8-tetrahydro-1,6-naphthyridin-3-yl)acetic acid], the EC50 worked out at 1640 nM.

As to `CC(C)c1nc2c(c(-c3ccc(F)cc3)c1C(OC(C)(C)C)C(=O)O)CN(c1ccccc1)CC2(C)C` (stereo not shown) [Example 15, 2-tert-Butoxy-2-(4-(4-fluorophenyl)-2-isopropyl-8,8-dimethyl-6-phenyl-5,6,7,8-tetrahydro-1,6-naphthyridin-3-yl)acetic acid], the EC50 worked out at 2090 nM.

For the compound `Cc1ccc(-c2c3c(nc(C)c2[C@H](OC(C)(C)C)C(=O)O)CCN(Cc2cccc(Cl)c2)C3)cc1` [Example 39, (S)-2-(tert-Butoxy)-2-(6-(3-chlorobenzyl)-2-methyl-4-(p-tolyl)-5,6,7,8-tetrahydro-1,6-naphthyridin-3-yl)acetic acid], the EC50 is 137 nM.
